Values of other authors, collected in US20250295156A1, “LOADED GRANULES, THEIR PROCESS OF PRODUCTION AND THEIR USES” (Evie SA, priority 2019, published 2025).

Tests used:
cannabinoid CB2 receptor = cannabinoid CB2 receptor (Homo sapiens, UniProt P34972)
[1] = humans, orally; no reported psychomotor slowing, negative mood effects, or vital sign abnormalities (Bergamaschi et al., 2011)

Sequence of cannabinoid CB2 receptor (P34972 whole entry): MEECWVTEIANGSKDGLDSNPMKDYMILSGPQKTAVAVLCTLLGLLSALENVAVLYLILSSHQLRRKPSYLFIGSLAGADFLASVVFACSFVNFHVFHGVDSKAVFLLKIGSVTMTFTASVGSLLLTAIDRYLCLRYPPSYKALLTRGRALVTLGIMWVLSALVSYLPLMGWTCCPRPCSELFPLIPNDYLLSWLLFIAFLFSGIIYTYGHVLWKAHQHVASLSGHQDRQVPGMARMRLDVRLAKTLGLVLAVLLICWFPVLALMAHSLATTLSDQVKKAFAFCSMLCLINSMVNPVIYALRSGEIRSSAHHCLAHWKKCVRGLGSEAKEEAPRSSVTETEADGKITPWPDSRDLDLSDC

Structure (SMILES): C=C(C)[C@@H]1CCC(C)=C[C@H]1c1c(O)cc(CCCCC)cc1O [Cannabidiol]
- affinity for CB2 receptor (cannabinoid CB2 receptor): very low affinity
- well tolerated dose [1]: up to 1500 mg/day
